Laboratory results from PubChem BioAssay (NCI).
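A five-concentration, 48-hour dose response in 96-well plates underlies each endpoint, interpolated linearly between surrounding concentrations. Here, GI50 denotes the concentration required for 50% inhibition of growth. TGI: concentration producing complete growth inhibition.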

Tests used:
Experiment in all cases: inhibition of tumour cell growth, NCI panel, 48 h
OVCAR-8 ovarian = system: OVCAR-8 ovarian
K-562 leukemia = system: K-562 leukemia
HOP-92 NSCLC = system: HOP-92 NSCLC
PC-3 prostate = system: PC-3 prostate
HOP-62 NSCLC = system: HOP-62 NSCLC
HS 578T breast = system: HS 578T breast
T-47D breast = system: T-47D breast
UACC-257 melanoma = system: UACC-257 melanoma
SF-295 CNS = system: SF-295 CNS
OVCAR-5 ovarian = system: OVCAR-5 ovarian

| Structure (SMILES) | GI50 (OVCAR-8 ovarian) | TGI (OVCAR-8 ovarian) | GI50 (K-562 leukemia) | TGI (K-562 leukemia) | GI50 (HOP-92 NSCLC) | TGI (HOP-92 NSCLC) | GI50 (PC-3 prostate) | TGI (PC-3 prostate) | GI50 (HOP-62 NSCLC) | TGI (HOP-62 NSCLC) | GI50 (HS 578T breast) | TGI (HS 578T breast) | GI50 (T-47D breast) | TGI (T-47D breast) | GI50 (UACC-257 melanoma) | TGI (UACC-257 melanoma) | GI50 (SF-295 CNS) | TGI (SF-295 CNS) | GI50 (OVCAR-5 ovarian) | TGI (OVCAR-5 ovarian) |
| --- | --- | --- | --- | --- | --- | --- | --- | --- | --- | --- | --- | --- | --- | --- | --- | --- | --- | --- | --- | --- |
| CCCCCCCCCCCCCCCCCc1nccn1CCOCCO | 5.64 µg/mL | 11.6 µg/mL | 4.87 µg/mL | 12.1 µg/mL | 2.33 µg/mL | 7.98 µg/mL | 4.9 µg/mL | 10.7 µg/mL | 5.37 µg/mL | 10.8 µg/mL | 5.34 µg/mL | 12.7 µg/mL | 2.99 µg/mL | 8.99 µg/mL | 5.49 µg/mL | 11 µg/mL | 5.27 µg/mL | 11 µg/mL | 5.86 µg/mL | 11.2 µg/mL |
| O=c1oc2ccc(I)cc2c(=O)n1-c1ccc(F)cc1F | 2.86 µM | 13.2 µM | 2.56 µM | > 100 µM | 0.7 µM | 3.78 µM | 2.24 µM | 6.94 µM | 2.16 µM | 6.09 µM | 2.04 µM | 6.55 µM | 1.99 µM | 6 µM | 2.01 µM | 6.12 µM | 1.87 µM | 3.74 µM | 3.96 µM | > 100 µM |
| CC(C)N1CCN(c2ccncc2S(=O)(=O)N2CCCCC2)CC1 | – | > 100 µM | – | > 100 µM | – | > 100 µM | – | > 100 µM | – | > 100 µM | – | > 100 µM | – | > 100 µM | – | > 100 µM | – | > 100 µM | – | > 100 µM |
| Oc1ccc(Nc2ccc3ccccc3c2)cc1 | 6.49 µM | 56.7 µM | 2.96 µM | 15.9 µM | 10.2 µM | 32.6 µM | 4.41 µM | 68.2 µM | 10.4 µM | 41.5 µM | 12.1 µM | 57.1 µM | 7.1 µM | 25.7 µM | 4.86 µM | 34.3 µM | 2.13 µM | 6.29 µM | 22.7 µM | 78.3 µM |
| CSC(=NC#N)S/C=C/C(=O)c1ccccc1 | 38.1 µM | > 100 µM | 32.7 µM | > 100 µM | 32.4 µM | > 100 µM | 33.2 µM | > 100 µM | 36 µM | > 100 µM | 39 µM | 96.8 µM | > 100 µM | > 100 µM | 45.4 µM | > 100 µM | 30.5 µM | > 100 µM | 62 µM | > 100 µM |
| O=C(CC1(O)C(=O)N(Cc2ccccc2)c2ccc(Cl)cc21)c1ccc(C(=O)NCC2CCC3(CC2)OOC2(CCCCC2)OO3)cc1 (stereo not given) | 0.295 µM | 0.758 µM | 1.57 µM | > 100 µM | 0.214 µM | 0.402 µM | 1.33 µM | 9.11 µM | 0.189 µM | 0.39 µM | 2.11 µM | 11.6 µM | 0.653 µM | 3.38 µM | 8.61 µM | > 100 µM | 0.57 µM | 1.34 µM | 0.644 µM | 6.28 µM |
